From patent US8337851B2, “Methods of monitoring the efficacy of anti-CD40 antibodies in treating a subject for a CD40-expressing cancer” (Novartis AG, priority 2005, dated 2012)

What was measured:
[1] = test system: CLL cells obtained from patients with CLL; assay: CD40L-induced production of VEGF in CLL cells; type: cell-based, human
Source text: In another experiment, CD40L-induced production of VEGF in normal B cells and CLL cells obtained from patients with CLL is examined in a manner similar to that described above.

B-CLL cells [2] = assay: p38 MAPK signaling and survival in B-CLL cells, 24-hour experiment; type: cell-based, human
Method: In the 24-hour experiment, approximately 0.8×10^6 B-CLL cells per well were placed in full serum (10% FBS)-containing media for 24 hours. […] Western blot analysis with antibodies against specific proteins shown was conducted, and equal loading was evaluated by probing with antibodies against β-actin.

ARH-77 cells = assay: ADCC, Calcein release with human NK cells, ARH-77; type: cell-based; conditions: NK:target 10 to 1, 4 hours, read-out: ED50 (percent specific lysis)
Method: Human MM cell lines, KMS-12-BM, IM-9, and ARH-77, were washed 3 times using R2 medium (Pheno red-free RPMI with 2% FBS) and re-suspended in R10 medium (Pheno red-free RPMI with 10% FBS) at the density of 1×10^6/mL. Cells were labeled by adding Calcein AM (final concentration […]) and incubating for 30 minutes at 37° C. in a humidified atmosphere with 5% CO2. Purified human NK cells and Calcein-labeled target cells were mixed in R10 medium at the ratio of 10 to 1 (5×10^4 NK cells and 5×10^3 target cells in […]) and added in U-bottom 96 well plate (Packard's Instrument, Meriden, Conn.). […] 1% NP-40 was added in 3 wells for the maximum cell lysis. Cells were incubated for 4 hours without disturbance at 37° C. in a humidified atmosphere with 5% CO2. The plate was then centrifuged at 300 rpm without brake for 5 minutes. […] supernatant was transferred into a new 96 well plate. The released Calcein in the supernatant was measured in arbitrary fluorescent unit (AFU) at 485 nm excitation and 535 nm emission using Tecan SpectraFluor Plus (Tecan U.S., Inc., Research Triangle, N.C.). The percent of specific lysis was calculated as: 100×(AFU test−AFU spontaneous release)/(AFU maximal release−AFU spontaneous release).
The ED50 was determined for each cell line by plotting the log of antibody concentration versus the percent specific lysis (see FIG. 16).

normal B cells = assay: CD40L-induced cytokine secretion from normal B cells (Meso Scale Discovery); type: cell-based, human; conditions: 10 μg/ml, 24 hours
Method: Cells (1×10^5 cells per well) were cultured in a 96-well plate in the presence or absence of CD40L (CD40 transfected, formaldehyde fixed CHO cells, 2×10^5 per well). […] Production of hIL-6, hIL-8, hIL-10, hTNF-α, hGM-CSF, hIL-1b, hIL-12p70, MCP-1, and MIP-1β was measured by Meso Scale Discovery® multi-array system (Meso Scale Discovery, Gaithersburg, Md.).

B-CLL cells [3] = assay: p38 MAPK signaling in B-CLL cells, four-hour experiment; type: cell-based, human; conditions: 4 hours
Method: In the four-hour experiment, approximately 0.8×10^6 B-CLL cells per well were serum starved in 1% FBS-containing media for 4 hours. […] Cell lysates were collected before and 20 minutes after CD40L stimulation. Western blot analysis with antibodies against specific proteins shown were conducted, and equal loading was evaluated by probing with antibodies to total p38 (t-p38) and β-actin.

B-CLL cells [4] = assay: Western blot of p-Akt, p-p38 MAPK, p-IKK α/β, p-ERK in B-CLL cells; type: cell-based, human
Method: To detect p38 MAPK, cells were cultured for 3 hr using the previously described conditions, with rhsCD40L being added in the last 20 min of incubation. Cells were processed as described above for data shown in FIG. 25. mAbs specific to human p-Akt and p-p38 MAPK were used to probe the resultant membranes, which were re-probed for AKT and p38 total protein, respectively.
Resultant membranes were probed using mAbs specific to human p-IKK α/β and p-ERK.

B-CLL cells [5] = assay: cPARP flow cytometry of CLL patient PBMCs; type: cell-based, human; conditions: 24 hours, 10 μg/ml
Method: [formula] cPARP analysis by flow cytometry was performed after 24 hours in culture. Cells were treated with FACSLysis buffer (BD Biosciences) and frozen. After fixation in 1% formaldehyde for 45 min, cells were washed and incubated with PE-conjugated mouse anti-human CD19 for 30 min at room temperature (RT). Cells were then permeabilized using 70% ethanol on ice for 30 min and stained for 30 min at RT with rabbit anti-human cPARP antibody or isotype control rabbit IgG along with PerCP-Cy5.5-labeled mouse anti-human CD5. This was followed by incubation with goat anti-rabbit IgG-AlexaFluor 647 for 30 min at RT before fixing with 1% formaldehyde and analyzing by flow cytometry. Percent blockade was calculated as follows: […]

[6] = 3 hr culture, rhsCD40L in the last 20 min

## CHIR-12.12: fully human anti-CD40 monoclonal antibody of the IgG1 isotype from hybridoma cell line 153.8E2.D10.D6.12.12 (ATCC PTA-5543)
[1]
  CD40L-induced production of VEGF: inhibit CD40L-induced production of VEGF
B-CLL cells [2]
  CD40 expression: inhibited
B-CLL cells [2]; CD40L
  cleaved Caspase-3: induced to a lesser extent
  p38 phosphorylation: similarly blocked
B-CLL cells [2]; SB203580 30 and 60 μM, CHIR-12.12 10 μg/mL, CD40L
  cleaved-PARP: significantly induced
B-CLL cells [2]; especially 60 μM SB203580 and 10 μg/ml CHIR-12.12
  Bcl-xl expression: blocked
ARH-77 cells
  EC50: 0.0239 nM
Normal B cells; absence of CD40L
  cytokine production with antibody alone (agonistic activity): did not produce any of the cytokines above background levels
Normal B cells; Donor 1
  inhibition of CD40L-induced MCP-1 secretion: 55.3 % inhibition
  inhibition of CD40L-induced MIP-1β secretion: 54.4 % inhibition
  inhibition of CD40L-induced hIL-6 secretion: 92.2 % inhibition
  inhibition of CD40L-induced hIL-8 secretion: 98.2 % inhibition
  inhibition of CD40L-induced hIL-10 secretion: 90.5 % inhibition
  inhibition of CD40L-induced hTNF-α secretion: 92.8 % inhibition
Normal B cells; Donor 2
  inhibition of CD40L-induced MIP-1β secretion: 92 % inhibition
  inhibition of CD40L-induced hIL-6 secretion: 99.9 % inhibition
  inhibition of CD40L-induced hIL-8 secretion: 84.7 % inhibition
  inhibition of CD40L-induced hTNF-α secretion: 97.4 % inhibition
Normal B cells; Donor 3
  inhibition of CD40L-induced MCP-1 secretion: 25.7 % inhibition
  inhibition of CD40L-induced MIP-1β secretion: 92.5 % inhibition
  inhibition of CD40L-induced hIL-6 secretion: 99.3 % inhibition
  inhibition of CD40L-induced hIL-8 secretion: 99.5 % inhibition
  inhibition of CD40L-induced hIL-10 secretion: 94.4 % inhibition
  inhibition of CD40L-induced hTNF-α secretion: 98.5 % inhibition
B-CLL cells [3]; 10 μg/mL
  Phospho-IKKα/β activation by CD40L: inhibited
B-CLL cells [3]; SB203580 30 and 60 μM, CHIR-12.12 10 μg/mL
  p38 activation by CD40L: fully inhibited
B-CLL cells [4]; [6]
  CD40L-induced phosphorylation of IKK α/β and ERK ½: inhibited the CD40L-induced phosphorylation of IKK α/β and ERK ½
  rhsCD40L-enhanced phosphorylation of p38 MAPK: blocked this effect
B-CLL cells [4]; in a number of samples
  CD40L activation of the AKT pathway (p-Akt): blocked this effect
B-CLL cells [5]
  blockade of CD40L-promoted survival: in each case, these effects were blocked
